The values that follow come from article PMC11802567, “Anti-cancer activity of synthetic gefitinib-1,2,3-triazole derivatives against Hela cells via induction of apoptosis” (Frontiers in Chemistry, 2025).

Converted amounts (≈) assume the structure as drawn. Like-named read-outs stand apart in the source and are kept apart here.

Series [1] concerns Hela cells. More on the design: method as in Huang et al., 2022. The settings on record: 72-h treatment; ref Huang et al., 2022; read-out: IC50, cytotoxicity to Hela cells; cited from earlier work.
The test system of series [2] is Hela cells. The experiment in a line: MTT cell viability assay, Hela cells. The class given is cell-based. Particulars: Homo sapiens, 48 h; for viability at 10 µM: mean ± SEM (n = 3). A general note: Tetrazolium dyes change colour on reduction, which living cells bring about.
For series [3], the system named is Hela cells. Further details: method as in Khanam et al., 2019. The settings on record: ref Khanam et al., 2019; cited from earlier work.
Series [4] relates to Hela cells. As to the kind of experiment: Plate clone formation assay. The format is cell-based, human. The settings on record: 0, 5, 10, 20 μM, dose-dependent. As for the experimental part:
(§1) To validate the impact of compound c13 on cell proliferation, plate clone formation assay was performed.
Hela cells with a density of 5 × 10^2 cells/well were seeded in 6-well plates overnight. The cells were treated with different concentrations of compounds (0, 5, 10, and 20 μM) were added and continued to be cultured at 37°C with 5% CO2. When more than 50 cell clone formations were visible, the culture medium was discharged. Then, the cells were fixed with 2 mL of 4% paraformaldehyde for 15 min and stained with 2 mL of crystal violet solution at room temperature for 15 min. A microscope was used to take photos and count the number of cell clones.

Series [5] deals with Hela cells. The experiment in a line: Morphological profiles of Hela cells by microscope. The format is cell-based, human. Particulars: 0, 5, 10, 20 μM. As for the experimental part:
FIGURE 2 Anti-proliferative Effects of compound c13 on Hela cells. (A) Dose-dependent cytotoxicity of compound c13, assessed at concentrations ranging from 0 to 40 μM on HeLa cells. Cell viability was plotted against the logarithm of compound c13 concentrations (n = 3). (B) Morphological profiles of Hela cells were taken by microscope after treatment with compound c13 at different doses (0, 5, 10, and 20 μM) (n = 3). (C) Representative photomicrographs of plate colony formation assay data with compound c13 at different doses (0, 5, 10, and 20 μM) (n = 3).
as §1

The test system of series [6] is Bax, Bcl-2, caspase 9, caspase 3, PARP1 in Hela cells. The experiment in a line: Western blot of apoptosis-associated proteins in Hela cells. The settings on record: 10 and 20 μM. The format is cell-based, human. From the text:
To explore whether the induction of apoptosis caused by compound c13 was associated with the activation of the apoptosis-related protein, a western blot was used to detect the expression of the protein including Bax and Bcl-2. […] Furthermore, the ratio of Bax to Bcl-2 was raised after being treated with compound c13, leading to apoptosis in Hela cells.
To determine the potential function of compound c13 in the regulation of the apoptosis signaling pathway, downstream key proteins containing caspase 3, caspase 9, and PARP1 were detected by western blot. […] Besides, a corresponding increase in the levels of cleaved-caspase 3, and cleaved-PARP1 was observed (Figure 6).
Whole cell extracts were prepared by lysing cells on ice for 30 min using RIPA lysis buffer (Beyotime Biotechnology, Shanghai, China). Following centrifugation at 12, 000 g for 15 min at 4°C, the supernatants were collected. The protein content concentrations of samples were determined according to the manufacturer’s protocol for the BCA protein assay kit (Thermo Scientific, Rockford, IL, United States).
Equal amounts of protein were resolved using sodium dodecyl sulfate polyacrylamide gel electrophoresis (SDS-PAGE) and subsequently transferred to a 0.2 μm nitrocellulose membrane. The membranes underwent blocking for a minimum of 1 h in 5% skimmed milk diluted in TBST. Subsequently, the blots were incubated overnight at 4°C with primary antibodies. Primary antibodies used were include, Bcl-2 (ABclonal, Wuhan, China), Bax (Wanleibio, Shenyang, China), Caspase 9/p35/p10 antibody (Proteintech, Wuhan, China), Caspase 3/p17/p19 (Proteintech, Wuhan, China), PARP-1 (Proteintech, Wuhan, China), β-actin (Sigma-Aldrich, St Louis, MO, United States). Following incubation, the membranes were washed three times with TBST buffer and then incubated with secondary antibodies (Kangchen Biotechnology, Shanghai, China) for 1 h at room temperature. Subsequently, the blots were washed three times with TBST buffer and developed using an enhanced chemiluminescence reagent (Millipore Corporation, Bedford, MA, United States). The intensity of each protein band was quantitatively analyzed using ImageJ software.
For orientation: Immunoblotting shows a protein as a band on a membrane.

In series [7] the test system is Hela cells. As to the kind of experiment: Cell cycle analysis by flow cytometry (PI). The class given is cell-based, human. The settings on record: 48 h. Here is the method:
To further evaluate the effect of compound c13 on the cell cycle, the cell cycle distributions of Hela cells after treatment of compound c13 were detected by flow cytometry.
Hela cells with a density of 1.5 × 10^5 cells/well were seeded in 12-well plates overnight. Different concentrations of compounds (0, 5, 10, and 20 μM) were added to treat the cells for 48 h. After treatment, the cells were washed with PBS and then the cells were fixed with 70% ethanol at −20°C overnight. Subsequently, the cells were stained with PI staining solution containing 10 μg/mL RNAase for 30 min in the dark. The data was collected by BD Accuri C6 Plus flow cytometry (BD Biosciences). All analyses were performed with FlowJo software.
Background: In flow cytometry, cells or beads pass a laser one at a time.

Series [8] has as its system Hela cells. As to the kind of experiment: Apoptosis assay, Annexin V-FITC/PI flow cytometry. The class given is cell-based, human. Particulars: 20 μM, 48 h. Here is the method:
To assess whether the anti-proliferative effects of compound c13 on Hela cells were associated with apoptosis, cell apoptosis after treatment of compound c13 was measured using Annexin V-FITC and propidium iodide (PI) staining by flow cytometer. […] Compared with the normal control group, compound c13 at 20 μM markedly raised the apoptotic ratio of Hela cells to 62.03% ± 9.48%.
Hela cells with a density of 1.5 × 10^5 cells/well were seeded in 12-well plates overnight for adhesion. The cells were treated with different concentrations of compounds (0, 5, 10, and 20 μM) for 48 h. After treatment, the cells were washed with PBS and stained with Annexin V-FITC and Propidium Iodide (PI) for 15 min in the dark. Cell apoptosis rate was detected by BD Accuri C6 Plus flow cytometry (BD Biosciences) and all analyses were performed with FlowJo software.

The test system of series [9] is HEK293T cells. As to the kind of experiment: MTT cell viability assay, HEK293T cells. The format is cell-based. The settings on record: Homo sapiens, HEK-293T, 48 h, tested 0-40 μM. Here is the method: (§2) To define the effects of compound c13 on cancer cell proliferation, the half-maximal inhibitory concentration (IC50) of compound c13 in Hela cells was calculated. Hela cells were treated with compound c13 at different concentrations (0 μM, 1 μM, 5 μM, 10 μM, 20 μM, and 40 μM) respectively for 48 h, and the cell viability was detected using the MTT method. […]. […] In contrast, its effect on the proliferation of HEK293T and NIH3T3 cells was minimal, with both IC50 values exceeding 100 μM.
(§3) Figure S1. The effect of compound c13 on the survival rate of HEK293T, NIH3T3, and Hela cells. compound c13 (0, 10, 20, and 40 μM) was used to treat HEK293T, NIH3T3, and Hela cells for 48 hours, and the cell survival rate was detected using the MTT method (n=3).

The subject of series [10] is NIH3T3 cells. As to the kind of experiment: MTT cell viability assay, NIH3T3 cells. The format is cell-based. Particulars: Mus musculus, 48 h, tested 0-40 μM. Here is the method: as §2, §3

As usually defined, the IC50 is the point on the concentration scale where inhibition reaches its midpoint. `C[C@]12CC[C@@H]3c4ccc(O)cc4CC[C@H]3[C@@H]1CC[C@@H]2O` [β-estradiol]: in [1], the IC50 was 18.7 ± 1.57 µM.
A word on the viability: it is a per cent measure of how many cells are alive, often set against a control. In series [2], `COc1cccc2c1C(=O)c1c(O)c3c(c(O)c1C2=O)C[C@@](O)(C(=O)CO)C[C@@H]3O[C@H]1C[C@H](N)[C@H](O)[C@H](C)O1` [Doxorubicin, reference compound] came in with a viability at 10 µM of 11.9 ± 1.2%.
Turning to `Nc1ccc(-c2nnc(CN3CCN(C(c4ccccc4)c4ccccc4)CC3)o2)cc1` [4d, N-benzhydryl-4-((5-(4-aminophenyl)-1,3,4-oxadiazol-2-yl)methyl)piperazine], the “IC50, HeLa cells” value in series [3] was 28.13 ± 0.21 µg/mL (≈ 66.1 µM).
For `COc1cc2ncnc(Nc3cccc(-c4cn(Cc5cc(Br)cc(Br)c5)nn4)c3)c2cc1OCCCN1CCOCC1` [c13, N-(3-(1-(3,5-dibromobenzyl)-1H-1,2,3-triazol-4-yl)phenyl)-7-methoxy-6-(3-morpholinopropoxy)quinazolin-4-amine], the viability at 10 µM in series [2] amounted to 32.6 ± 8.61%. Besides, the concentration for half-maximal inhibition (IC50) in series [2] (read-out: IC50 against Hela cells) turned out to be 5.66 ± 0.35 µM. Further, the “Colony formation ability of Hela cells” value in series [4] is “significantly inhibited the colony formation ability”. Besides, the “Morphological changes of Hela cells” value in series [5] is on record as “severe morphological changes”. In series [6], the “Level of cleaved-PARP1” value is listed as “increase”, the “Level of cleaved-caspase 3” value was “increase”, the “Level of cleaved-caspase 9” value is listed as “tendency of upregulation but had no significant difference” and the “Protein expression of pro-apoptotic Bax” value is “enhanced”. In series [6], the “Protein level of anti-apoptotic Bcl-2” value was “diminished” and the “Ratio of Bax to Bcl-2” value is listed as “raised”. Moreover, in series [6] (vs control group), the “Protein level of full-length PARP1” value was “decreased”, the “Protein level of full-length caspase 3” value is recorded as “decreased” and the “Protein level of full-length caspase 9” value was “decreased”. Further, the “Proportion of the G1 phase” value in series [7] (20 μM, printed as % of control group) is on record as 52.05% ± 2.85%. For the same compound, the “Percentage of cells in the G2/M phase” value in series [7] (10 and 20 μM) is given as “upregulated”. Also, the “Apoptotic ratio of Hela cells” value in [8] is 62.03% ± 9.48%. In series [9], this compound gave an IC50 above 100 µM. In [10], this compound yielded a half-inhibitory concentration (IC50) above 100 µM.
For the compound `COc1cc2ncnc(Nc3ccc(F)c(Cl)c3)c2cc1OCCCN1CCOCC1` [Gefitinib], in [2], the viability at 10 µM turned out to be 75.9 ± 2.88%.
